Test results taken from patent US20250295763A1 (priority 2024, published 2025).

How the values were obtained:
[1] = background statement; cited from earlier work
H3N2 = assay type: in vivo, C57BL/6 mice

CCC(C)C(CC(O)CC(=O)OC1C(C)OC(OC(=O)C23CCC(C)(C)CC2C2=CCC4C5(C)CCC(OC6OC(C(=O)O)C(O)C(OC7OCC(O)C(O)C7O)C6OC6OC(CO)C(O)C(O)C6O)C(C)(C=O)C5CCC4(C)C2(C)CC3O)C(OC2OC(C)C(OC3OCC(O)C(OC4OCC(O)(CO)C4O)C3O)C(OC3OC(CO)C(O)C(O)C3O)C2O)C1O)OC(=O)CC(O)CC(OC1OC(COC2OC(C)C(O)C(O)C2O)C(O)C1O)C(C)CC (stereo not drawn) [QS-17]
solubility in water [1]: water-soluble

CCC(C)C(CC(O)CC(=O)OC1C(C)OC(OC(=O)C23CCC(C)(C)CC2C2=CCC4C5(C)CCC(OC6OC(C(=O)O)C(O)C(OC7OCC(O)C(O)C7O)C6OC6OC(CO)C(O)C(O)C6O)C(C)(C=O)C5CCC4(C)C2(C)CC3O)C(OC2OC(C)C(OC3OCC(O)C(OC4OCC(O)(CO)C4O)C3O)C(OC3OC(CO)C(O)C(O)C3O)C2O)C1O)OC(=O)CC(O)CC(OC1OC(CO)C(O)C1O)C(C)CC (stereo not drawn) [QS-18]
solubility in water [1]: water-soluble

CC1O[C@@H](OC(=O)[C@]23CCC(C)(C)CC2C2=CCC4C5(C)CC[C@H](O[C@@H]6O[C@H](C(=O)NCCCCCCCCc7ccc(Oc8ccccc8)cc7)[C@@H](O)[C@H](O)[C@H]6O)[C@](C)(C=O)[C@@H]5CC[C@]4(C)C2(C)CC3O)C(O[C@@H]2OC(C)[C@H](O[C@@H]3OC[C@@H](O)[C@H](O)C3O)[C@H](O[C@@H]3OC(CO)[C@@H](O)[C@H](O)C3O)C2O)[C@@H](O)[C@H]1O (stereo partly drawn) [Synsap 17]
HI titer GMT mean (H3N2; Table 10, after the boost (day 28), CpG 1018 / Synsap 17 ratios, 0.3 mcg H3N2): 183.8
HI titer Fold (compare to CpG1018) (H3N2; Table 10, day 28): 0.6
HI titer Fold (compare to H3N2) (H3N2; Table 10, day 28): 1.1
HI titer Fold (compare to Synsap 17) (H3N2; Table 10, day 28): 1.0
Body weight change (%) Post-dose 1 D 1 (Table 9, i.m. Days 0 and 14, 0.3 mcg H3N2, 10 mcg CpG 1018 with 10, 50, 75 or 100 mcg Synsap 17, or 50 mcg CpG 1018 with 10 mcg Synsap 17, D 1): −1.769%
Body weight change (%) Post-dose 1 D 2 (Table 9, same groups, D 2): −0.704%
Body weight change (%) Post-dose 1 D 14 (Table 9, same groups, D 14): 3.586%
Body weight change (%) Post-dose 2 D 15 (Table 9, same groups, D 15): −0.277%
Body weight change (%) Post-dose 2 D 16 (Table 9, same groups, D 16): −0.654%
Body weight change (%) Post-dose 2 D 21 (Table 9, same groups, D 21): 2.921%

CCCCCCCCCCCCCC(=O)O[C@H](CCCCCCCCCCC)CC(=O)OC1C(NC(=O)C[C@@H](CCCCCCCCCCC)OC(=O)CCCCCCCCCCC)[C@H](OCC2O[C@H](O)C(NC(=O)C[C@H](O)CCCCCCCCCCC)C(OC(=O)C[C@H](O)CCCCCCCCCCC)[C@@H]2O)OC(CO)[C@H]1OP(=O)(O)O (stereo partly drawn) [EcML, reference compound]
HI titers GMT mean (H3N2; Table 4, after the boost (day 28), 5 mcg TLR4 agonist / 50 mcg Synsap, 0.3 mcg H3N2): 403.2
HI titers Fold (compare to AS01B) (H3N2; Table 4, day 28): 0.3
HI titers Fold (compare to H3N2) (H3N2; Table 4, day 28): 2.5
Average body weight change (%) Post-dose 1 D 1 (Table 3, i.m. Days 0 and 14, 0.3 mcg H3N2, 5/50 mcg TLR4 agonist/Synsap, alone: 5 mcg 3D-6A-PHAD, 5 mcg EcML, 10 mcg TLR4-1, 50 mcg Synsap, 5/5 mcg AS01B, D 1): −3.607%
Average body weight change (%) Post-dose 1 D 2 (Table 3, same groups, D 2): −1.832%
Average body weight change (%) Post-dose 1 D 14 (Table 3, same groups, D 14): 7.914%
Average body weight change (%) Post-dose 2 D 15 (Table 3, same groups, D 15): −3.002%
Average body weight change (%) Post-dose 2 D 16 (Table 3, same groups, D 16): −0.735%
Average body weight change (%) Post-dose 2 D 21 (Table 3, same groups, D 21): 1.468%
